Experimental data as given in US9669001B2, “Antimicrobial composition” (CONVATEC TECHNOLOGIES INC., priority 2008, dated 2017).

Tests used:
Format in all cases: cell-based
P. aeruginosa biofilms [1] = test: Minimum Biofilm Eradication Concentration (MBEC) method with cyan LED illumination; settings: combinations in sterile water, cyan LED lamp; FIG. 4
P. aeruginosa biofilms [2] = test: Photo-catalytic therapy, in vitro wound biofilm model (pork belly)
S. aureus biofilms = test: as above; settings: higher doses of RB and light, post-treatment rinse; FIG. 2

| Molecule | effect on the action of RB and light against biofilms (P. aeruginosa biofilms [1]) | biofilm removal (reduction in P. aeruginosa) (P. aeruginosa biofilms [2]; 25 μM RB, PCT with post-treatment rinse step, FIG. 1) [log] | P. aeruginosa biofilm bacteria cell killing on raising dose (P. aeruginosa biofilms [2]; RB and light dose increased five-fold, no post-treatment rinse, FIG. 1 bars 2 & 4) | biofilm cell reductions (S. aureus biofilms) |
| --- | --- | --- | --- | --- |
| O=C(O)CN(CCN(CC(=O)O)CC(=O)O)CC(=O)O [EDTA, ethylene diamine tetraacetic acid] | potentiates the action of RB and light in a concentration-dependent manner |  |  |  |
| O=C1OC2(c3cc(I)c(O)c(I)c3Oc3c2cc(I)c(O)c3I)c2c(Cl)c(Cl)c(Cl)c(Cl)c21 [Rose Bengal, 4,5,6,7-Tetrachloro-3′,6′-dihydroxy-2′,4′,5′,7′-tetriodo-3H-spiro[isobenzofuran-1,9′-xanthen]-3-one] |  | 2 | significantly increased reduction | over 3 log10 |
| dialkyl dimethyl ammonium chloride [DDAC] | potentiates the action of RB and light in a concentration-dependent manner |  |  |  |
